Data published in patent US20040242662A1 (priority 2000, published 2004).

Legend:
[1] = logP determination by HPLC (EEC Directive 79/831 Annexe V.A8); assay type: physicochemical; details: gradient method, acetonitrile/0.1% aqueous phosphoric acid
Procedure: The logP values were determined in accordance with EEC Directive 79/831 Annexe V.A8 by HPLC (gradient method, acetonitrile/0.1% aqueous phosphoric acid).

[2] = tested on: Phytophthora infestans; assay type: in vivo; details: tomato, protective; application rate 50 g/ha; evaluation three days after inoculation; 100% means no infection

SMILES | melting point [°C] | chromatographic logP [1] | Efficacy in % [2] [%]
Cc1c(Cl)nc(Br)n1S(=O)(=O)c1cccnc1Cl [Example 1, 3-[(2-bromo-4-chloro-5-methyl-1H-imidazol-1-yl)-sulfonyl]-2-chloropyridine] | 144 to 146 | 2.9 | –
Cc1c(Br)nc(Br)n1S(=O)(=O)c1cccnc1Cl [Example 2] | 154 to 158 | 2.97 | –
Cc1c(Cl)nc(Br)n1S(=O)(=O)c1cccnc1Cl [drawing 18] | – | – | 94
Cc1c(Br)nc(Br)n1S(=O)(=O)c1cccnc1Cl [drawing 19] | – | – | 94
